Data from PMC8695410 (RSC Advances, 2021).

What was measured:
FXa = FXa (Homo sapiens, UniProt P00742); test: In vitro chromogenic factor Xa inhibitory assay; format: biochemical
thrombin = conditions: cited from earlier work; for IC50: thrombin inhibitors

Chain of FXa (P00742 235-488 limits assumed): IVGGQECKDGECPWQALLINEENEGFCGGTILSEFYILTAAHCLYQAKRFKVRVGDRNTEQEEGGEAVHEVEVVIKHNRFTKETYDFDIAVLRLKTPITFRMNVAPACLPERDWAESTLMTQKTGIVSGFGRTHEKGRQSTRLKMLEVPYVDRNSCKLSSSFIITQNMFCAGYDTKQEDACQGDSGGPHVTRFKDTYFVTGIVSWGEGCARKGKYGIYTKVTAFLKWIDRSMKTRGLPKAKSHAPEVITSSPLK
Chain of FXa (P00742 41-179 partner limits assumed): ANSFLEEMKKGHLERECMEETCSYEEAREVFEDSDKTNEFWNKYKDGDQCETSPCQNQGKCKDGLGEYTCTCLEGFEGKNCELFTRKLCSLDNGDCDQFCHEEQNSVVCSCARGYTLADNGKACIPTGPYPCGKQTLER

FXa inhibitory activity (in words) (FXa)	IC50 (FXa) [µM]	Compound	IC50 (thrombin) [µM]	thrombin inhibitory effects (in words) (thrombin)
Moderate activity	67.1 ± 1.75	O=c1cc(-c2ccc(O)cc2)oc2cc(O)ccc12 [Compound 1, 7,4′-dihydroxyflavone]	–	–
–	17.7 ± 0.28	COc1ccc(-c2coc3cc(O)ccc3c2=O)cc1 [Compound 2, 7-hydroxy-4′-methoxyisoflavone]	–	–
Moderate activity	35.3 ± 1.03	CC1(C)C=Cc2c(ccc3c2OC[C@@H](c2ccc(O)cc2O)C3)O1 [Compound 3, 3-R-glabridin]	–	–
Moderate activity	74.4 ± 1.29	O=C(/C=C/c1ccc(O)cc1)c1ccc(O)cc1O [Compound 4, isoliquiritigenin]	17.9	–
–	5.15 ± 0.09	O=C1C[C@@H](c2ccc(O[C@@H]3O[C@H](CO)[C@@H](O)[C@H](O)[C@H]3O)cc2)Oc2cc(O)ccc21 [Compound 5, liquiritin]	–	negligible
–	10.4 ± 0.52	COc1c(/C=C/C(=O)c2ccc(O)c(O)c2)ccc(O)c1O [Compound 7, 3,3′,4,4′-tetrahydroxy-2-methoxychalcone]	–	–
very weak effects	–	isoliquiritigenin-4-O-β-D-apiosylglucoside [Compound 10]	37.9	–
very weak effects	–	liquiritigenin-4′-O-β-D-apiosyl(1-2)-β-D-glucoside [Compound 8]	–	–
